Test results reported in ChEMBL document CHEMBL4028802, “DILIrank: the largest reference drug list ranked by the risk for developing drug-induced liver injury in humans” (Drug Discov Today, 2016).

Key:
Homo sapiens [1] = organism: Homo sapiens; experiment: Liver toxicity in human assessed as induction of drug-induced liver injury by measuring severity class index
Homo sapiens [2] = organism: Homo sapiens; experiment: Liver toxicity in human assessed as induction of drug-induced liver injury by measuring verified drug-induced liver injury concern status
For DILI severity class in this document: key of the grades not given here.

Row | SMILES | DILI_severity_class (Homo sapiens [1]) | DILI_Concern (Homo sapiens [2])
1 | NS(=O)(=O)c1cc2c(cc1C(F)(F)F)NC(Cc1ccccc1)NS2(=O)=O (stereo unspecified) [BENDROFLUMETHIAZIDE] | 5 | Less-Dili-Concern
2 | CC(C(=O)O)c1ccc2oc(-c3ccc(Cl)cc3)nc2c1 (stereo unspecified) [BENOXAPROFEN] | 8 | Most-Dili-Concern
3 | CCc1oc2ccccc2c1C(=O)c1ccc(O)cc1 [BENZARONE] | 8 | Most-Dili-Concern
4 | CCc1oc2ccccc2c1C(=O)c1cc(Br)c(O)c(Br)c1 [BENZBROMARONE] | 8 | Most-Dili-Concern
5 | CCc1oc2ccccc2c1C(=O)c1cc(I)c(O)c(I)c1 [BENZIODARONE] | 8 | Most-Dili-Concern
6 | CCCCNc1ccc(C(=O)OCCOCCOCCOCCOCCOCCOCCOCCOCCOC)cc1 [BENZONATATE] | 0 | Less-Dili-Concern
7 | C[C@@H](Cc1ccccc1)N(C)Cc1ccccc1 [BENZPHETAMINE] | 0 | No-Dili-Concern
8 | CN1[C@@H]2CC[C@H]1C[C@@H](OC(c1ccccc1)c1ccccc1)C2 [BENZTROPINE] | 0 | No-Dili-Concern
9 | C[N+](C)(C)CC(=O)O [BETAINE] | 0 | No-Dili-Concern
10 | CC(C)NCC(O)COc1ccc(CCOCC2CC2)cc1 (stereo unspecified) [BETAXOLOL] | 3 | Ambiguous-Dili-Concern
11 | CC(C[N+](C)(C)C)OC(N)=O (stereo unspecified) [BETHANECHOL] | 0 | No-Dili-Concern
12 | C=C(c1ccc(C(=O)O)cc1)c1cc2c(cc1C)C(C)(C)CCC2(C)C [BEXAROTENE] | 8 | Most-Dili-Concern
13 | CC(O)(CS(=O)(=O)c1ccc(F)cc1)C(=O)Nc1ccc(C#N)c(C(F)(F)F)c1 (stereo unspecified) [BICALUTAMIDE] | 8 | Most-Dili-Concern
14 | OC(CCN1CCCCC1)(c1ccccc1)C1CC2C=CC1C2 (stereo unspecified) [BIPERIDEN] | 0 | No-Dili-Concern
15 | CC(=O)Oc1ccc(C(c2ccc(OC(C)=O)cc2)c2ccccn2)cc1 [BISACODYL] | 0 | No-Dili-Concern
16 | CC(C)NCC(O)COc1ccc(COCCOC(C)C)cc1 (stereo unspecified) [BISOPROLOL] | 3 | Ambiguous-Dili-Concern
17 | CC(C)C[C@H](NC(=O)[C@H](Cc1ccccc1)NC(=O)c1cnccn1)B(O)O [BORTEZOMIB] | 7 | Most-Dili-Concern
18 | COc1ccccc1Oc1c(NS(=O)(=O)c2ccc(C(C)(C)C)cc2)nc(-c2ncccn2)nc1OCCO [BOSENTAN] | 7 | Most-Dili-Concern
19 | Nc1c(CC(=O)O)cccc1C(=O)c1ccc(Br)cc1 [BROMFENAC] | 8 | Most-Dili-Concern
20 | CC(C)C[C@H]1C(=O)N2CCC[C@H]2[C@]2(O)O[C@](NC(=O)[C@@H]3C=C4c5cccc6[nH]c(Br)c(c56)C[C@H]4N(C)C3)(C(C)C)C(=O)N12 [BROMOCRIPTINE] | 3 | Less-Dili-Concern
21 | CN(C)CCC(c1ccc(Br)cc1)c1ccccn1 (stereo unspecified) [BROMPHENIRAMINE] | 0 | No-Dili-Concern
22 | CCCC1O[C@@H]2C[C@H]3[C@@H]4CCC5=CC(=O)C=C[C@]5(C)[C@H]4[C@@H](O)C[C@]3(C)[C@]2(C(=O)CO)O1 (stereo partly specified) [BUDESONIDE] | 0 | No-Dili-Concern
23 | CCCCNc1cc(C(=O)O)cc(S(N)(=O)=O)c1Oc1ccccc1 [BUMETANIDE] | 3 | Ambiguous-Dili-Concern
24 | CC(NC(C)(C)C)C(=O)c1cccc(Cl)c1 (stereo unspecified) [BUPROPION] | 5 | Less-Dili-Concern
25 | O=C1CC2(CCCC2)CC(=O)N1CCCCN1CCN(c2ncccn2)CC1 [BUSPIRONE] | 3 | Ambiguous-Dili-Concern
26 | CS(=O)(=O)OCCCCOS(C)(=O)=O [BUSULFAN] | 8 | Most-Dili-Concern
27 | CCC(C)C1(CC)C(=O)NC(=O)NC1=O (stereo unspecified) [BUTABARBITAL] | 3 | Ambiguous-Dili-Concern

Row | SMILES | DILI_severity_class (Homo sapiens [1]) | DILI_Concern (Homo sapiens [2])
28 | Oc1ccc2c(c1)[C@@]13CCCC[C@@]1(O)[C@@H](C2)N(CC1CCC1)CC3 [BUTORPHANOL] | 0 | No-Dili-Concern
29 | C=CCN1C[C@H](C(=O)N(CCCN(C)C)C(=O)NCC)C[C@@H]2c3cccc4[nH]cc(c34)C[C@H]21 [CABERGOLINE] | 0 | No-Dili-Concern
30 | Cn1c(=O)c2c(ncn2C)n(C)c1=O [CAFFEINE] | 0 | No-Dili-Concern
31 | CC(C)C[C@H](NC(=O)[C@H](CCCCN)NC(=O)CNC(=O)[C@H](CC(C)C)NC(=O)[C@@H](NC(=O)[C@@H]1CSSC[C@H](N)C(=O)N[C@@H](CO)C(=O)N[C@@H](CC(N)=O)C(=O)N[C@@H](CC(C)C)C(=O)N[C@@H](CO)C(=O)N[C@@H]([C@@H](C)O)C(=O)N1)C(C)C)C(=O)N[C@@H](CO)C(=O)N[C@@H](CCC(N)=O)C(=O)N[C@@H](CCC(=O)O)C(=O)N[C@@H](CC(C)C)C(=O)N[C@@H](Cc1c[nH]cn1)C(=O)N[C@@H](CCCCN)C(=O)N[C@@H](CC(C)C)C(=O)N[C@@H](CCC(N)=O)C(=O)N[C@H](C(=O)N[C@@H](Cc1ccc(O)cc1)C(=O)N1CCC[C@H]1C(=O)N[C@@H](CCCNC(=N)N)C(=O)N[C@H](C(=O)N[C@@H](CC(N)=O)C(=O)N[C@H](C(=O)NCC(=O)N[C@@H](CO)C(=O)NCC(=O)N[C@H](C(=O)N1CCC[C@H]1C(N)=O)[C@@H](C)O)[C@@H](C)O)[C@@H](C)O)[C@@H](C)O [CALCITONIN SALMON] | 0 | No-Dili-Concern
32 | C=C1/C(=C\C=C2/CCC[C@]3(C)[C@@H]([C@H](C)CCCC(C)(C)O)CC[C@@H]23)C[C@@H](O)C[C@@H]1O [CALCITRIOL] | 0 | No-Dili-Concern
33 | CC(=O)[O-].CC(=O)[O-].[Ca+2] [CALCIUM ACETATE] | 0 | No-Dili-Concern
34 | CCCCCOC(=O)Nc1nc(=O)n([C@@H]2O[C@H](C)[C@@H](O)[C@H]2O)cc1F [CAPECITABINE] | 2 | Ambiguous-Dili-Concern
35 | C[C@H](CS)C(=O)N1CCC[C@H]1C(=O)O [CAPTOPRIL] | 7 | Less-Dili-Concern
36 | NC(=O)N1c2ccccc2C=Cc2ccccc21 [CARBAMAZEPINE] | 7 | Most-Dili-Concern
37 | CC1(C)S[C@@H]2[C@H](NC(=O)C(C(=O)O)c3ccccc3)C(=O)N2[C@H]1C(=O)O (stereo partly specified) [CARBENICILLIN] | 3 | Less-Dili-Concern
38 | C[C@@](Cc1ccc(O)c(O)c1)(NN)C(=O)O [CARBIDOPA ANHYDROUS] | 3 | Ambiguous-Dili-Concern
39 | CN(C)CCOC(c1ccc(Cl)cc1)c1ccccn1 (stereo unspecified) [CARBINOXAMINE] | 0 | No-Dili-Concern
40 | CCCCC[C@](C)(O)/C=C/[C@@H]1[C@@H](C/C=C\CCCC(=O)O)[C@@H](O)C[C@H]1O.NC(CO)(CO)CO [CARBOPROST TROMETHAMINE] | 0 | No-Dili-Concern
41 | CCCC(C)(COC(N)=O)COC(=O)NC(C)C (stereo unspecified) [CARISOPRODOL] | 0 | No-Dili-Concern
42 | COc1ccccc1OCCNCC(O)COc1cccc2[nH]c3ccccc3c12 (stereo unspecified) [CARVEDILOL] | 3 | Less-Dili-Concern
43 | CC[C@H](C)C[C@H](C)CCCCCCCCC(=O)N[C@H]1C[C@@H](O)[C@@H](NCCN)NC(=O)[C@@H]2[C@@H](O)CCN2C(=O)[C@H]([C@H](O)CCN)NC(=O)[C@H]([C@H](O)[C@@H](O)c2ccc(O)cc2)NC(=O)[C@@H]2C[C@@H](O)CN2C(=O)[C@H]([C@@H](C)O)NC1=O [CASPOFUNGIN] | 7 | Ambiguous-Dili-Concern
44 | N[C@@H](C(=O)N[C@@H]1C(=O)N2C(C(=O)O)=C(Cl)CS[C@H]12)c1ccccc1 [CEFACLOR ANHYDROUS] | 3 | Less-Dili-Concern
45 | CC1=C(C(=O)O)N2C(=O)[C@@H](NC(=O)[C@H](N)c3ccc(O)cc3)[C@H]2SC1 [CEFADROXIL] | 7 | Less-Dili-Concern
46 | Cc1nnc(SCC2=C(C(=O)O)N3C(=O)[C@@H](NC(=O)Cn4cnnn4)[C@H]3SC2)s1 [CEFAZOLIN] | 3 | Less-Dili-Concern
47 | CO/N=C(\C(=O)N[C@@H]1C(=O)N2C(C(=O)O)=C(/C=C\c3scnc3C)CS[C@H]12)c1csc(N)n1 [CEFDITOREN] | 2 | Ambiguous-Dili-Concern
48 | C=CC1=C(C(=O)O)N2C(=O)[C@@H](NC(=O)/C(=N\OCC(=O)O)c3csc(N)n3)[C@H]2SC1 [CEFIXIME] | 4 | Ambiguous-Dili-Concern
49 | CCN1CCN(C(=O)N[C@@H](C(=O)N[C@@H]2C(=O)N3C(C(=O)O)=C(CSc4nnnn4C)CS[C@H]23)c2ccc(O)cc2)C(=O)C1=O [CEFOPERAZONE] | 3 | Less-Dili-Concern
50 | CO/N=C(\C(=O)N[C@@H]1C(=O)N2C(C(=O)O)=C(COC(C)=O)CS[C@H]12)c1csc(N)n1 [CEFOTAXIME] | 5 | Less-Dili-Concern
51 | CO[C@@]1(NC(=O)C2SC(=C(C(N)=O)C(=O)O)S2)C(=O)N2C(C(=O)O)=C(CSc3nnnn3C)CS[C@@H]21 (stereo partly specified) [CEFOTETAN] | 3 | Ambiguous-Dili-Concern
52 | CO[C@@]1(NC(=O)Cc2cccs2)C(=O)N2C(C(=O)O)=C(COC(N)=O)CS[C@@H]21 [CEFOXITIN] | 3 | Ambiguous-Dili-Concern
53 | COCC1=C(C(=O)O)N2C(=O)[C@@H](NC(=O)/C(=N\OC)c3csc(N)n3)[C@H]2SC1 [CEFPODOXIME] | 3 | Ambiguous-Dili-Concern
